Assays:
[1] = test system: Mus musculus; assay: Tested in vivo for anticonvulsant activity against maximal electroshock in mouse, intravenously (MES tested at 1 h); format: functional
[2] = test system: Mus musculus; assay: Tested in vivo for the ability to produce ataxia in mouse, intravenously. (ataxia tested at 30 min); format: functional
[3] = Tested for the therapeutic index, which was determined as the ratio of ED50 for ataxia and ED50 to prevent seizures; details: for selectivity ratio: read-out: TI
[4] = Partition coefficient (logP); format: physicochemical; details: octanol/water
[5] = Tested for the NMDA antagonist activity, glutamate induced LDH release in cultured neuronal cells; format: functional, cell-based
[6] = Tested for the NMDA antagonist activity, glutamate induced calcium influx in cultured neuronal cells; format: functional, cell-based
[7] = test system: Mus musculus; assay: Tested in vivo for anticonvulsant activity against maximal electroshock in mouse, intravenously; format: functional
[8] = molecular target: Glutamate NMDA receptor; assay: Tested for the inhibitory activity against NMDA receptor site as measured in a [3H]CPP binding assay of rat brain neuronal membranes

Row | logP [4] | IC50 [5] [µM] | IC50 [6] [µM] | SMILES | ED50 [1] [mg/kg] | ED50 [2] [mg/kg] | selectivity ratio [3] | ED50 [7] [mg/kg] | also measured
1 |  |  |  | O=C(O)[C@H]1Cc2c(CCP(=O)(O)O)cccc2CN1 | 3.56 | 6.29 | 1.76 |  | 
2 | -3.4 | 9 | 2.4 | O=C(O)C1CN(CCCP(=O)(O)O)CCN1 (centres undefined) |  |  | 2.21 |  | ED50 ([1]; Mus musculus, iv, 1 h, read-out: ED50): 2.35 mg/kg; ED50 ([2]; Mus musculus, iv, 0.5 h, read-out: ED50): 5.21 mg/kg
3 |  |  |  | C/C(=C\C(N)C(=O)O)CP(=O)(O)O (single isomer, unassigned; (-)) [CGP-37849] |  |  |  | >60 | 
4 |  |  |  | C/C(=C\C(N)C(=O)O)CP(=O)(O)O (racemic) [CGP-37849] |  |  |  | 21 | 
5 | 1.4 | 8.8 | 5.1 | O=C(O)[C@H]1Cc2c(CCP(=O)(O)O)cccc2CN1 (racemic) | 9.2 | 15.84 |  |  | IC50 [8]: 0.27 µM; TI [3]: 1.72
6 |  |  |  | C/C(=C\C(N)C(=O)O)CP(=O)(O)O (single isomer, unassigned; (+)) [CGP-37849] |  |  |  | 7 | 
